Here are results for 15 compounds from patent publication US11365207B2, “Sulfur-containing polycyclic-hydroxypyridone carboxamide analog against HIV” (priority 2018, dated 2022).

Common to all, as to type: cell-based
In series [1] the test system is HIV-1IIIB. Kind of series: Inhibition of replication in HIV-1IIIB acute infectious C8166 cells (p24 antigen capture ELISA). Conditions: for EC50: Human immunodeficiency virus 1, 72 h, P24 antigen, HIV-1IIIB acute infectious C8166 cells, 3 days; for inhibitory effect on HIV-1 replication in vitro: statement in words. On the procedure:
(§1) Human T lymphocytic series C8166 and HIV-1 experiment strain HIV-1IIIB are both from National Institutes of Health (NIH); cells are cultured in the RPMI-1640 complete culture medium containing 10% fetal bovine serum. HIV-1IIIB is prepared by using a conventional method, titration and calculation of TCID 50 of viruses are performed. Virus stock solution is subpackaged and stored at −70° C. Cells and viruses are cryopreserved and recovered according to conventional methods.
5. Measurement of HIV-1 p24 Antigen with p24 Antigen Capture ELISA Method
The 1 μg/plate of anti-mouse IgG Fc antibody was paved at 4° C. for overnight; the plate was sealed with 5% skimmed milk powder 4° C. for overnight; 100 μl/well mouse anti-p24 monoclonal antibody was added at 37° C. for 1 h; 100 μl/well (1:100) diluted rabbit anti-p24 polyclonal antibody (homemade) was added for 1 h at 37° C.; 100 μl/well (1:20000) diluted goat anti-rabbit IgG HRP was added for 1 h at 37° C.; OPD substrate reaction solution was added. After 10 min, 2M sulfuric acid was added to stop the reaction. The OD value was determined by Elx800 ELISA, and the wavelength was measured as 490/630 nm. The inhibition rate and EC50 of the drug on the p24 antigen replication and expression of HIV-1, namely, the concentration of the drug inhibiting 50% HIV-1 p24 antigen were calculated, namely, the concentration of the drug inhibiting 50% HIV-1 p24 antigen expression was calculated.
8. Inhibition Effect of Samples on Replication in Experiment Strain HIV-1IIIB Acute Infectious C8166 Cells
4×10^5 cells/ml C8166 cells and HIV-1IIIB MOI (multiplicity of infection=0.04) are infected for 2 h at 37° C., the obtained mixture is washed three times with PBS to remove free virus ions, 100 μl of cells are inoculated onto the 96-well plate containing 100 μl of to-be-detected compounds having different dilutions and cultured for 3 days under the conditions of 37° C. and 5% CO2. The cultural supernatant is centrifuged and then collected, and finally lysed and inactivated with 0.5% Triton X-100. The inhibition effect of the drug on HIV-1 replication is detected by using the p24 antigen capture ELISA method.
(§2) According to experiment results, fitted curves are drawn using Origin2016, the 50% effective concentrations (EC50) of the samples inhibiting viruses, 50% cell growth inhibition concentrations (CC50) and TI (therapeutic index) value against HIV-1 activity are calculated based on Reed & Muench method, and the TI value is TI=CC50/EC50.
3. HIV-1 p24 antigen expression inhibition rate (%)=(1−experiment well OD value/control well OD value)×100

The nature of series [2]: Toxicity test of C8166 cells (MTT colorimetric method). To be noted: human. On the procedure:
as §1
6. Toxicity Test of C8166 Cells
100 μl of 4×10^5 ml C8166 was mixed with different to-be-detected drug solutions, and 3 repetition wells were set. Meanwhile, control wells were set. Culture was performed for 3 days under the conditions of 37° C. and 5% CO2. Cytotoxicity was detected with MTT colorimetric method. The OD value was measured with EL ×800 ELIASA, the wavelength was measured as 570/630 nm. The CC50 value was calculated (50% cytotoxic concentration), namely, the concentration of the drug when toxicity was generated for 50% normal T lymphocytic series C8166.
as §2
1. Cell growth survival rate (%)=experiment well OD value/control well OD value×100

Series [3] concerns HIV-1IIIB. Description: Inhibition experiment for cytopathic effect (CPE) of HIV-1IIIB, syncytia formation in C8166 cells. To be noted: Human immunodeficiency virus 1, 72 h, HIV-1IIIB in C8166 cells, 3 days. On the procedure:
as §1
7. Inhibition Experiment for Cytopathic Effect (CPE) of HIV-1IIIB
8×10^5/ml C8166 cells were inoculated onto the 96-well cell culture plate containing 100 μl/well drug subjected to gradient multiple proportion dilution in an amount of 50 μl/well, and then 50 μl HIV-1IIIB was added to dilute the supernatant, 1300 TCID 50/well. 3 repetition wells were set. Meanwhile, normal cell control wells without drugs were set. TDF and dolutegravir were positive drug controls. Culture was performed for 3 days under the conditions of 37° C. and 5% CO2, and syncytia formation were counted under the inverted microscope (100×). EC50 (50% Effective Concentration) is the concentration of the drug when 50% of syncytia formation is inhibited.
as §2
2. HIV-1 cytopathic cell inhibition rate (%)=(1−experiment well syncytia number/control well syncytia number)×100
For orientation: Damage to the host cells serves as the signal in cytopathic effect assays.

The mark [4] stands for this setting: C8166 cells (T lymphocytic cell line), C8166 cells, MTT, 3 days, read-out: CC50.

Structures can show the parent of a compound that is named as a salt. Where two headings read alike, the source gives them in different places.

As for `CC(C)[C@H]1CSC2Cn3cc(C(=O)NCc4ccc(F)cc4F)c(=O)c(O)c3C(=O)N21` (stereo partly shown) [Compound 6], the 50% effective concentration (EC50) – broadly, the concentration giving half of the maximal effect – in the series on HIV-1IIIB [1] (values given in pM) turned out to be 208 ± 36.1 pM; with HIV-1IIIB [3] (values given in pM), 182 ± 20.3 pM. Further, the 50% cytotoxic concentration (CC50) (usually the concentration that lowers cell viability or growth by half) at 3 days in series [2] (setting [4]) was determined as 22.6 ± 0.48 µM.

As for `O=C(NCc1ccc(F)cc1F)c1cn2c(c(O)c1=O)C(=O)N1C(C2)SC[C@@H]1c1ccccc1` (stereo partly shown) [Compound 10], the EC50 is 4160 ± 580 pM with HIV-1IIIB [1] (values in nM) and 3820 ± 510 pM with HIV-1IIIB [3] (values in nM). The CC50 at 3 days in series [2] (setting [4]) was 45.16 ± 0.41 µM.

In the case of `CC(C)C[C@H]1CSC2Cn3cc(C(=O)NCc4ccc(F)cc4F)c(=O)c(O)c3C(=O)N21` (stereo partly shown) [Compound 20], the concentration for a half-maximal effect (EC50) in the series with HIV-1IIIB [1] (values given in pM) worked out at 148 ± 20.1 pM; in the series on HIV-1IIIB [3] (values given in pM) it was 125 ± 17 pM. For the same compound, in series [2] (setting [4]), the 50% cytotoxic concentration (CC50) at 3 days is 18.3 ± 0.19 µM.

In the case of `CC(C)C1CSC2Cn3cc(C(=O)NCc4ccc(F)cc4F)c(=O)c(O)c3C(=O)N21` (stereo not shown) [Compound 5], the figures for the EC50 in the series on HIV-1IIIB [1] (values given in pM) and in the series on HIV-1IIIB [3] (values given in pM) were 188 ± 22.8 pM and 162 ± 18.1 pM, respectively. Further, the 50% cytotoxic concentration (CC50) at 3 days in series [2] (setting [4]) amounted to 16.1 ± 0.3 µM.

In the case of `C[C@H]1CSC2Cn3cc(C(=O)NCc4ccc(F)cc4)c(=O)c(O)c3C(=O)N21` (stereo partly shown) [Compound 66], the values for the EC50 in the series on HIV-1IIIB [1] (values given in pM) and with HIV-1IIIB [3] (values given in pM) were 83.6 ± 10.9 pM and 75.3 ± 8.61 pM, respectively. Moreover, the “inhibitory effect on HIV-1 replication in vitro” value (“inhibitory effect” for short) in the series with HIV-1IIIB [1] is “strong inhibitory effect”. The CC50 at 3 days in series [2] (setting [4]) was 20.1 ± 0.21 µM.

`C[C@@H]1CCSC2Cn3cc(C(=O)NCc4ccc(F)cc4F)c(=O)c(O)c3C(=O)N21` (stereo partly shown) [Compound 18]: the results for the concentration giving a half-maximal response (EC50) in the series with HIV-1IIIB [1] (values given in pM) and with HIV-1IIIB [3] (values given in pM) were 11.1 ± 2.09 pM and 10.2 ± 2.11 pM, respectively. In addition, the “inhibitory effect” value was “extremely strong inhibition effects” with HIV-1IIIB [1] and “strong inhibitory effect” in the series with HIV-1IIIB [1] (listed as compound 18). Further, the CC50 at 3 days in series [2] (setting [4]) was determined as 14 ± 0.21 µM.

Consider `C[C@@H]1CSC2Cn3cc(C(=O)NCc4ccc(F)cc4F)c(=O)c(O)c3C(=O)N21` (stereo partly shown) [Compound 1], for which the 50% effective concentration (EC50) worked out at 201 ± 33.3 pM with HIV-1IIIB [1] (values given in pM) and 187 ± 31.1 pM in the series on HIV-1IIIB [3] (values given in pM). Also, the half-maximal cytotoxic concentration (CC50) at 3 days in series [2] (setting [4]) stood at 20.3 ± 0.21 µM.

`CC[C@@H]1CSC2Cn3cc(C(=O)NCc4ccc(F)cc4F)c(=O)c(O)c3C(=O)N21` (stereo partly shown) [Compound 3]: the EC50 with HIV-1IIIB [1] (values given in pM) was 35.1 ± 6.02 pM; in the series with HIV-1IIIB [3] (values given in pM) it was 28.9 ± 5.11 pM. Moreover, the CC50 at 3 days in series [2] (setting [4]) turned out to be 18.6 ± 0.35 µM.

Consider `CC(C)(C)[C@H]1CSC2Cn3cc(C(=O)NCc4ccc(F)cc4F)c(=O)c(O)c3C(=O)N21` (stereo partly shown) [Compound 8], for which the EC50 turned out to be 781 ± 113 pM in the series with HIV-1IIIB [1] (values given in pM) and 716 ± 103 pM with HIV-1IIIB [3] (values given in pM). For the same compound, the CC50 at 3 days in series [2] (setting [4]) was 26.3 ± 0.35 µM.

Consider `C[C@@H]1CCO[C@H]2Cn3cc(C(=O)NCc4ccc(F)cc4F)c(=O)c(O)c3C(=O)N12` [Dolutegravir, reference compound], for which the figures for the EC50 in the series on HIV-1IIIB [1] (values in nM) and in the series on HIV-1IIIB [3] (values in nM) were 1050 ± 120 pM and 2130 ± 330 pM, respectively. For the same compound, the CC50 at 3 days in series [2] (setting [4]) was determined as 26.6 ± 2.2 µM.

Regarding `CC(C)OC(=O)OCOP(=O)(CO[C@H](C)Cn1cnc2c(N)ncnc21)OCOC(=O)OC(C)C` [TDF, tenofovir disoproxil fumarate, reference compound], the 50% effective concentration (EC50) is 8070 ± 4720 pM in the series with HIV-1IIIB [1] (values in nM) and 12100 ± 11300 pM in the series on HIV-1IIIB [3] (values in nM). The half-maximal cytotoxic concentration (CC50) at 3 days in series [2] (setting [4]) came to 157 ± 21.4 µM.

For the compound `O=C(NCc1ccc(F)cc1F)c1cn2c(c(O)c1=O)C(=O)N1C(C2)SC[C@@H]1Cc1ccccc1` (stereo partly shown) [Compound 12], the values for the EC50 in the series on HIV-1IIIB [1] (values given in pM) and in the series with HIV-1IIIB [3] (values given in pM) were 589 ± 86.1 pM and 526 ± 77.1 pM, respectively. For the same compound, the CC50 at 3 days in series [2] (setting [4]) was 28.6 ± 0.32 µM.

As to `CC[C@H]1CSC2Cn3cc(C(=O)NCc4ccc(F)cc4F)c(=O)c(O)c3C(=O)N21` (stereo partly shown) [Compound 4], the EC50 is 35.1 ± 6.02 pM in the series with HIV-1IIIB [1] (values given in pM) and 28.9 ± 5.11 pM with HIV-1IIIB [3] (values given in pM). Moreover, the half-maximal cytotoxic concentration (CC50) at 3 days in series [2] (setting [4]) came to 18.6 ± 0.35 µM.

`O=C(NCc1c(F)cc(F)cc1F)c1cn2c(c(O)c1=O)C(=O)N1C(C2)S[C@@H]2CC[C@H]1C2` (stereo partly shown) [Compound 34]: the concentration giving a half-maximal response (EC50) with HIV-1IIIB [1] (values given in pM) amounted to 38.1 ± 6.52 pM; in the series on HIV-1IIIB [3] (values given in pM) it was 35.9 ± 6.11 pM. Further, the “inhibitory effect” value in the series with HIV-1IIIB [1] is recorded as “extremely strong inhibition effects”; in the series on HIV-1IIIB [1] (listed as compound 34) it was “strong inhibitory effect”. In series [2], this compound returned a half-maximal cytotoxic concentration (CC50) at 3 days of 20.7 ± 0.32 µM.

Regarding `C[C@H]1CSC2Cn3cc(C(=O)NCc4ccc(F)cc4F)c(=O)c(O)c3C(=O)N21` (stereo partly shown) [Compound 2], the results for the EC50 in the series on HIV-1IIIB [1] (values given in pM) and in the series on HIV-1IIIB [3] (values given in pM) were 18.1 ± 2.86 pM and 15.7 ± 2.61 pM, respectively. The “inhibitory effect” value in the series on HIV-1IIIB [1] is given as “extremely strong inhibition effects”; with HIV-1IIIB [1] (listed as compound 2), “strong inhibitory effect”. In addition, the half-maximal cytotoxic concentration (CC50) at 3 days in series [2] (setting [4]) is 11.33 ± 0.11 µM.
